Data published in patent US20090093539A1, “ANTI-ANGIOGENIC COMPOSITIONS AND METHODS OF USE THEREOF” (priority 2007, published 2009).

Experiments:
Type in all cases: cell-based
[1] = system: Bovine Cardio-Pulmonary Artery Endothelial (CPAE) cells; assay: endothelial cell proliferation assay (cellular acid phosphatase readout)
Experimental: An endothelial cell proliferation assay was carried out according to the procedures of Connally, et al. (1986) (Anal. Biochem. 152:136-140) with modifications (Liang and Wong (2000) ANGIOGENESIS: FROM THE MOLECULAR TO INTEGRATIVE PHARMACOLOGY, edited by Maradoudakis, Kluwer Academic/Plenum Publishers, New York, pp 209-223). Bovine Cardio-Pulmonary Artery Endothelial (CPAE) cells acquired from American Type Culture Collection (ATCC; ATCC No. CCL-209) were grown to nearly 95% confluence in MEM-10E. The cells were released from the tissue culture flask with a 0.25% trypsin solution and plated in 24-well tissue culture plates in the same culture medium at a density of 10,000 cells/well. After the plates were incubated for 8 hours at 37° C. in a 5% carbon dioxide incubator, assay samples and control samples were added. Each sample was loaded in two different wells at 100 μl/well to ensure reproducibility. After incubation with the sample for 60 hours, the medium was aspirated, and the number of cells was measured on the basis of the calorimetric measurement of cellular acid phosphatase.

[2] = system: HTB 72 (Melanoma) cancer cell line; assay: inhibition of cancer cell lines in vitro: HTB 72; conditions: about 2 micrograms per milliliter
Source text: (§1) 15,16-dihyrotanshinone I is also a potent inhibitor of several cancer cell lines in vitro, including the SW480 (Colon Cancer) and the HTB 72 (Melanoma) cancer cell lines. At a very low concentration of about 2 micrograms per milliliter, 100% inhibitions are achieved.

[3] = system: SW480 (Colon Cancer) cancer cell line; assay: inhibition of cancer cell lines in vitro: SW480; conditions: about 2 micrograms per milliliter
Source text: as §1

Cc1cccc2c3c(ccc12)C1=C(C(=O)C3=O)C(C)CO1 (stereo not shown) [15,16-dihydrotanshinone I, 15,16-dihydrotanshinone]
inhibition at 50 µg/mL ([1]; Bos taurus, Endothelial cell, 50 μg/ml, 60 hours incubation, read-out: endothelial cell growth inhibition): 84.4%
inhibition of endothelial cell proliferation, concentration-dependent study (FIG. 1) ([1]; another 15,16-dihydrotanshinone I sample, result in words): inhibits endothelial cell proliferation in a concentration-dependent manner
inhibition of HTB 72 (Melanoma) cell line [2]: 100%
inhibition of SW480 (Colon Cancer) cell line [3]: 100%
